Counter-ions that a name gives are not always drawn.
Assays:
[1] = Human whole blood stability; format: in vitro ADME; conditions: 37° C.
Protocol: (§1) Test compounds were incubated for a total of 240 minutes at 37° C. in whole mouse and whole human blood. The compounds were added at time-point 0 and sample aliquots were withdrawn at each time point (usually 0, 60 and 240 minutes). The samples were extracted using protein precipitation. Analysis of extracted samples was achieved using HPLC with MS detection. Several types of HPLC columns and mobile phase were used depending of the polarity of the compound. The compound stability was determined by the % of compound remaining at 240 minutes (peak response of compound at 240 minutes/peak response at 0 minutes×100).

[2] = Mouse whole blood stability; format: in vitro ADME; conditions: 37° C.
Protocol: as §1

SMILES | Blood stability (% of compound remaining after 240 min.) Human Blood [1] | Blood stability (% of compound remaining after 240 min.) Mouse Blood [2]
CCC(C)[C@H](N)C(=O)NCCCS(=O)(=O)O (stereo partly drawn) [Compound A11] | +++ (+++: >75%) | +++ (+++: >75%)
CSCC[C@H](N)C(=O)NCCCS(=O)(=O)O [Compound A6] | ++ (++: 30-75%) | + (+: <30%)
N[C@H](C(=O)NCCCS(=O)(=O)O)c1ccccc1 [Compound A15] | ++ (++: 30-75%) | + (+: <30%)
NCC(=O)NCCCS(=O)(=O)O [Compound A10] | ++ (++: 30-75%) | ++ (++: 30-75%)
N[C@@H](CCC(=O)OCc1ccccc1)C(=O)NCCCS(=O)(=O)O [Compound A19] | + (+: <30%) | + (+: <30%)
O=C(NCCCS(=O)(=O)O)[C@@H]1CCCN1 [Compound A3] | – | ++ (++: 30-75%)
O=C(O)CCC(=O)NCCCS(=O)(=O)O [Compound B5] | +++ (+++: >75%) | +++ (+++: >75%)
CSCC[C@@H](N)C(=O)NCCCS(=O)(=O)O [Compound A12] | +++ (+++: >75%) | +++ (+++: >75%)
CC(C)(N)C(=O)NCCCS(=O)(=O)O [Compound A14] | +++ (+++: >75%) | +++ (+++: >75%)
CC(C)(CC(=O)O)CC(=O)NCCCS(=O)(=O)O [Compound B3, 3,3-dimethyl-5-oxo-5-[(3-sulfopropyl)amino]pentanoic Acid Sodium Salt] | +++ (+++: >75%) | ++ (++: 30-75%)
C[C@H](N)C(=O)NCCCS(=O)(=O)O [Compound A8] | + (+: <30%) | ++ (++: 30-75%)
N[C@@H](Cc1c[nH]c2ccccc12)C(=O)NCCCS(=O)(=O)O [Compound A16] | +++ (+++: >75%) | ++ (++: 30-75%)
N[C@@H](Cc1ccccc1)C(=O)NCCCS(=O)(=O)O [Compound A1] | – | + (+: <30%)
CC(C)C[C@H](N)C(=O)NCCCS(=O)(=O)O [Compound A5] | + (+: <30%) | + (+: <30%)
CC(C)(CCC(=O)NCCCS(=O)(=O)O)C(=O)O [Compound B4] | +++ (+++: >75%) | +++ (+++: >75%)
N[C@@H](Cc1c[nH]cn1)C(=O)NCCCS(=O)(=O)O [Compound A13] | +++ (+++: >75%) | +++ (+++: >75%)
C[C@@H](N)C(=O)NCCCS(=O)(=O)O [Compound A9] | +++ (+++: >75%) | +++ (+++: >75%)

Second part, the compound after the results:

Blood stability (% of compound remaining after 240 min.) Human Blood [1] | Blood stability (% of compound remaining after 240 min.) Mouse Blood [2] | SMILES
++ (++: 30-75%) | + (+: <30%) | CC(C)(C)C(=O)OC(OC(=O)NCCCS(=O)(=O)O)C1CCCCC1 (stereo not drawn) [Compound C20]
+++ (+++: >75%) | ++ (++: 30-75%) | CC(OC(=O)CCC(=O)O)OC(=O)NCCCS(=O)(=O)O (stereo not drawn) [Compound C4]
++ (++: 30-75%) | + (+: <30%) | CC(OC(=O)CCCC(=O)OCc1ccccc1)OC(=O)NCCCS(=O)(=O)O (stereo not drawn) [Compound C12]
++ (++: 30-75%) | + (+: <30%) | CC(OC(=O)NCCCS(=O)(=O)O)OC(=O)c1ccccc1 (stereo not drawn) [Compound C16, 4-aza-7-methyl-6,8,-dioxa-5,9,-dioxo-9-phenyl-1-nonanesulfonic Acid Sodium Salt]
++ (++: 30-75%) | + (+: <30%) | CC(C)C(OC(=O)NCCCS(=O)(=O)O)OC(=O)C(C)(C)C (stereo not drawn) [Compound C23]
++ (++: 30-75%) | + (+: <30%) | CC(=O)OC(OC(=O)NCCCS(=O)(=O)O)C(C)C (stereo not drawn) [Compound C22]
++ (++: 30-75%) | + (+: <30%) | CC(OC(=O)NCCCS(=O)(=O)O)OC(=O)C(C)(C)C (stereo not drawn) [Compound C15]
+ (+: <30%) | + (+: <30%) | CC(OC(=O)NCCCS(=O)(=O)O)OC(=O)C(C)(C)c1cccs1 (stereo not drawn) [Compound C13]
+++ (+++: >75%) | +++ (+++: >75%) | CC(OC(=O)CCCC(=O)O)OC(=O)NCCCS(=O)(=O)O (stereo not drawn) [Compound C11]
+ (+: <30%) | + (+: <30%) | CC(OC(=O)CCCCC(=O)OCc1ccccc1)OC(=O)NCCCS(=O)(=O)O (stereo not drawn) [Compound C10]
+ (+: <30%) | + (+: <30%) | CC(OC(=O)CCC(=O)OCc1ccccc1)OC(=O)NCCCS(=O)(=O)O (stereo not drawn) [Compound C5]
+ (+: <30%) | + (+: <30%) | CC(=O)Oc1ccc(COC(=O)NCCCS(=O)(=O)O)cc1 [Compound C1, 3-(p-acetyloxybenzyloxycarbonyl)amino-1-propanesulfonic Acid Sodium Salt]
– | + (+: <30%) | CC(OC(=O)NCCCS(=O)(=O)O)OC(=O)C1CCCCC1 (stereo not drawn) [Compound C17]
– | + (+: <30%) | CC(=O)OC(C)OC(=O)NCCCS(=O)(=O)O (stereo not drawn) [Compound C19, 4-aza-7-methyl-6,8,-dioxa-5,9,-dioxo-1-decanesulfonic acid Sodium Salt]
+++ (+++: >75%) | ++ (++: 30-75%) | CC(OC(=O)NCCCS(=O)(=O)O)OC(=O)C(C)(C)c1ccccc1 (stereo not drawn) [Compound C14]
+++ (+++: >75%) | + (+: <30%) | CC(OC(=O)CC(C)(C)CC(=O)OCc1ccccc1)OC(=O)NCCCS(=O)(=O)O (stereo not drawn) [Compound C7]
++ (++: 30-75%) | + (+: <30%) | CC(=O)OC(OC(=O)NCCCS(=O)(=O)O)C(C)(C)C (stereo not drawn) [Compound C24]
– | + (+: <30%) | CC(OC(=O)NCCCS(=O)(=O)O)OC(=O)C(C)C (stereo not drawn) [Compound C18]
+++ (+++: >75%) | +++ (+++: >75%) | CC(OC(=O)CC(C)(C)CC(=O)O)OC(=O)NCCCS(=O)(=O)O (stereo not drawn) [Compound C8]
++ (++: 30-75%) | ++ (++: 30-75%) | CC(OC(=O)CCCCC(=O)O)OC(=O)NCCCS(=O)(=O)O (stereo not drawn) [Compound C9]

From US11020360B2, “Methods, compounds, compositions and vehicles for delivering 3-amino-1-propanesulfonic acid” (Bellus Health, Inc., priority 2006, dated 2021)
